Results published in patent US20250101062A1, “ANTIMICROBIAL PEPTIDES” (Board of Regents of the University of Nebraska, priority 2023, published 2025).
Read-outs that look alike come from different tables or passages of the source. Where no end group is shown, it is not given here.

Tests used:
K. pneumoniae E406-17 = type: cell-based, Klebsiella pneumoniae
Method: (§1) The following resistant bacterial clinical strains were used in this study: S. aureus USA300 LAC, S. epidermidis 1457, E. coli E423-17, P. aeruginosa E411-17, K. pneumoniae E406-17, and A. baumannii B28-16. While the S. aureus USA300 strain is methicillin-resistant, most of the Gram-negative bacteria contain extended-spectrum beta-lactamase and are resistant to beta-lactam antibiotics. Peptide activity against bacteria was tested using an established lab protocol (Mishra, et al. (2017) Acta Biomater., 49:316-328). In brief, a peptide concentration gradient with twofold dilution was made in the 96-well polystyrene microplate at 10 μL per well. Bacteria were grown to the exponential phase (i.e., optical density at 600 nm≈0.5), diluted to ˜10^5 CFU/mL in different percentages of MHB, TSB, or LB, and partitioned into the 96-well microplate at 90 μL per well. […] They were diluted with autoclaved distilled water to obtain different percentages. The microplates were incubated at 37° C. overnight and read on a ChroMate™ 4300 microplate reader at 600 nm (GMI, Ramsey, MN). The peptide concentration in the wells without bacterial growth is the MIC. As is the convention, MIC values were represented as ranges.
(§2) Peptide activity against bacteria were tested using the CLSI standard procedure with minor modifications (Clinical and Laboratory Standards Institute (2018) Performance standards for antimicrobial susceptibility testing, 9th ed.; Mishra, et al. (2019) Proc. Natl. Acad. Sci., 116(27):13517-13522). In brief, a peptide concentration gradient with twofold dilution was made in the 96-well polystyrene microplate at 10 μL per well. Bacteria were grown to the exponential phase (i.e., optical density at 600 nm≈0.5), diluted to ˜10^5 CFU/mL in MHB, and partitioned into the 96-well microplate at 90 μL per well. The microplates were incubated at 37° C. overnight and read on a ChroMate® 4300 Microplate Reader at 600 nm (GMI, Ramsey, MN). The peptide concentration in the wells without bacterial growth is the minimal inhibitory concentration (MIC). As the convention, MIC values were represented as ranges.

P. aeruginosa E416-17 = type: cell-based, Pseudomonas aeruginosa
Method: as §2

S. aureus USA300 LAC = assay: microbe, parasite or virus in culture; type: cell-based, Staphylococcus aureus
Method: as §1
(§3) For pH effects on peptide activity, the pH of the medium was adjusted to a targeted pH for the autoclave and then remeasured at room temperature. For salt and serum effects on peptide activity, stock NaCl solution or human serum was added to the media.
as §2
(§4) For pH effects on peptide activity, the pH of the medium was adjusted to a targeted pH for autoclave and then remeasured at room temperature. For salt and serum effects on peptide activity, stock NaCl solution or human serum were added to the media.

E. coli E423-17 [1] = type: cell-based, Escherichia coli; conditions: E423-17
Method: as §1, §3, §2, §4

S. epidermidis 1457 = assay: microbe, parasite or virus in culture; type: cell-based, Staphylococcus epidermidis; conditions: for MIC: read-out: Antimicrobial activity (MIC) S. epidermidis 1457
Method: as §1, §2

A. baumannii B28-16 = type: cell-based, Acinetobacter baumannii; conditions: B28-16
Method: as §1, §2

P. aeruginosa E411-17 = assay: microbe, parasite or virus in culture; type: cell-based, Pseudomonas aeruginosa; conditions: for MIC: read-out: Antimicrobial activity (MIC)
Method: as §1, §3, §2, §4

human red blood cells = assay: Hemolytic assay; type: cell-based; conditions: red cells of human
Method: The hemolytic effects of peptides were evaluated using a method with minor modifications (Lakshmaiah Narayana, et al. (2021) ACS Infect. Dis., 7:1795-1808). Human red blood cells (hRBCs, UNMC Blood Bank) were washed (3×) with blood bank saline (isotonic solution 0.90% w/v, Fisher). Cells were diluted to 2% using the saline solution, and aliquots of 90 μL were added to a 96-well polystyrene microplate containing 10 μL of serially diluted peptide solutions. After incubation at 37° C. for 1 hour, plates were centrifuged at 500 g for 5 minutes. Aliquots of the supernatant were transferred to a 96-well microplate. The amount of hemoglobin released was measured at 545 nm by using a ChroMate™ microplate reader. […] HC50 is defined as the concentration of the peptide that caused 50% lysis.
The hemolytic effects of peptides were evaluated (Narayana, et al. (2020) Proc. Natl. Acad. Sci., 117(32):19446-9454). In brief, human red blood cells (UNMC Blood Bank) were washed (3×) and diluted to 2% using the saline solution. Aliquots of 90 μL were mixed with 10 μL of serially diluted peptide solutions. After incubation at 37° C. for 1 hour, plates were centrifuged at 500 g for 5 minutes and aliquots of the supernatant were transferred to a new 96-well microplate to measure the amount of hemoglobin released at 545 nm (relative to 1% Triton® X-100) using a ChroMate® Microplate Reader.

Cytotoxicity assay (MTS) = type: cell-based; conditions: human, HepG2 cells, read-out: LC50
Method: (§5) HepG2 cells were cultured in ATCC-formulated Eagle's Minimum Essential Medium with 10% FBS. A549 cells were grown in ATCC-formulated F-12K Medium containing 10% FBS.

[2] = test system: human keratinocyte HaCaT cells; assay: Cell viability assay (MTS); type: cell-based
Method: Human keratinocyte HaCaT cells were grown in DMEM/high glucose (Hyclone, UT) containing 10% fetal bovine serum (Mediatech, Corning, Manassas, VA). […] The mixture was incubated at 37° C. in 5% CO2 for 24 hours.
as §5

MRSA USA300 = assay: Membrane permeabilization (propidium iodide); type: cell-based, Staphylococcus aureus; conditions: Example 1, 1×MIC
Method: The peptide ladder was prepared as described for the antibacterial assay with 10 μL of solution in a black COSTAR® 96-well plate. PI (MP Biomedicals, Solon, OH) was prepared in the dark and dissolved in dimethylsulfoxide (Thermo Fisher Scientific, NY) to 20 mM. This PI stock solution was further diluted to 1 mM with water, and 2 μL of 1 mM PI was added to each well. Exponential-phase MRSA USA300 was diluted to OD600 0.11 with TSB, and 88 μL was added to each well. The plate was incubated at 37° C. with continuous shaking in a FLUOstar® Omega (BMG LABTECH, NC) microplate reader. The sample was read every 5 minutes for 24 cycles with excitation and emission wavelengths of 584 and 620 nm, respectively.
Bacterial membrane permeation was conducted (Yeaman, et al. (1998) J. Clin. Invest., 101(1):178-87). In brief, the peptide ladder was prepared as described for the antibacterial assay with 10 μL in a black COSTAR 96-well plate. Propidium iodide (PI) (MP Biomedicals, Solon, OH) was prepared in the dark and dissolved in DMSO (Thermo Fisher Scientific, NY) to 20 mM. This PI stock solution was further diluted to 1 mM with water and 2 μL of 1 mM PI was added to each well. Exponential phase MRSA USA300 or P. aeruginosa E411-17 was diluted to OD600 0.11 with tryptic soy broth (TSB) and 88 μL was added to each well. The plate was incubated at 37° C. with continuous shaking in a FLUOstar® Omega (BMG LABTECH, NC) microplate reader. The sample was read every 5 minutes for 24 cycles with excitation and emission wavelengths at 584 nm and 620 nm, respectively.

E. coli E423-17 [3] = assay: Membrane permeabilization (propidium iodide); type: cell-based, Escherichia coli; conditions: Example 1, 1×MIC
[4] = Effect of MHB dilution on antibacterial activity of a panel of antibiotics; type: cell-based; conditions: MHB from 100 to 12.5%
Method: FIGS. 2A-2D show biofilm disruption activity of human LL-37 (FIGS. 2A and 2B) and 17BIPHE2 (FIGS. 2C and 2D) against the 24 hour preformed biofilms of S. aureus USA300 LAC in different MHB media: 12.5% MHB (FIGS. 2A and 2C) and 100% MHB (FIGS. 2B and 2D). FIGS. 2E-2H show the treatment outcome of LL-37 (FIGS. 2E and 2F) and 17BIPHE2 (FIGS. 2G and 2H) against the 24-hour preformed biofilms of E. coli E423-17 in different MHB media: 12.5% MHB (FIGS. 2E and 2G) and 100% MHB (FIGS. 2F and 2H). […] Growth curves of S. aureus USA 300 LAC (FIGS. 2J-2K) and P. aeruginosa 152 (FIGS. 2L-2M) in 12.5%, 25%, 50% and 100% MHB or TSB medium (curves from bottom to top).
The effects of MHB dilution on the antimicrobial activity of a panel of antibiotics was also compared (FIG. 2I).

[5] = USA300, pH 6.21, read-out: Antimicrobial activity (MIC)
[6] = USA300, pH 7.22, read-out: Antimicrobial activity (MIC)
[7] = USA300, pH 8.13, read-out: Antimicrobial activity (MIC)
[8] = USA300, read-out: Antimicrobial activity (MIC)

Substance | MIC K. pneumoniae E406-17 (K. pneumoniae E406-17) [µM] | MIC P. aeruginosa E416-17 (P. aeruginosa E416-17) [µM] | MIC (S. aureus USA300 LAC; [5]) [µM] | MIC (S. aureus USA300 LAC; [6]) [µM] | MIC (S. aureus USA300 LAC; [7]) [µM] | MIC (S. aureus USA300 LAC; [8]) [µM] | Antimicrobial activity (MIC) E. coli E423-17 (E. coli E423-17 [1]) [µM] | Antimicrobial activity (MIC) A. baumannii B28-16 (A. baumannii B28-16) [µM] | Antimicrobial activity (MIC) P. aeruginosa E411-17 (P. aeruginosa E411-17; E411-17) [µM] | MIC (P. aeruginosa E411-17; E411-17, pH 6.21) [µM] | MIC (P. aeruginosa E411-17; E411-17, pH 8.13) [µM] | Hemolysis (HC10), 10% hemolytic concentration (human red blood cells) [µM] | CC50 at 24 h (Cytotoxicity assay (MTS)) [µM] | other results
KWKRFFRGWL-NH2 [RetroLL-10+] | >32 | 4 |  |  |  |  |  |  |  |  |  |  |  | 
KRWWQWWK-NH2 [KR-8+] |  |  | >32 | 8 | 8 | 16 | 4 | 16 to 32 | 8 | 8 | 8 | 300 | 12.5 | Antimicrobial activity (MIC) (S. aureus USA300 LAC; USA300): 16 to 32 µM; Antimicrobial activity (MIC) S. aureus USA300 (S. aureus USA300 LAC; USA300): 8 to 16 µM; Antimicrobial activity (MIC) S. epidermidis 1457 (S. epidermidis 1457): 16 to 32 µM; MIC (P. aeruginosa E411-17; E411-17, pH 7.22): 8 µM
RWWKKWWGK-NH2 [RK-9+] |  |  | >32 | 8 | 4 | 32 | 8 | >32 | 8 to 16 | 32 | 4 | > 400 | > 100 | Antimicrobial activity (MIC) (S. aureus USA300 LAC; USA300): 16 to 32 µM; Antimicrobial activity (MIC) S. aureus USA300 (S. aureus USA300 LAC; USA300): 8 to 16 µM; MIC (S. epidermidis 1457): 16 µM; Antimicrobial activity (MIC) (P. aeruginosa E411-17; E411-17, pH 7.22): 8 to 16 µM; MIC (P. aeruginosa E411-17; E411-17): >32 µM
KRIWQRWK-NH2 [W540] |  |  |  |  |  |  |  |  |  |  |  |  |  | Activity (MIC) S. aureus (S. aureus USA300 LAC; USA300): >32 µM; Activity (MIC) E.coli (E. coli E423-17 [1]): >32 µM; Activity (MIC) K. pneumoniae (K. pneumoniae E406-17): >32 µM; Activity (MIC) A. baumannii (A. baumannii B28-16): >32 µM; Activity (MIC) P. aeruginosa (P. aeruginosa E411-17; E411-17): >32 µM; HC50 (50% hemolysis) (human red blood cells): ~150 µM; toxicity to human HaCaT skin cells [2]: more toxic than the other peptides
RRWWRWWL-NH2 [W544] |  |  |  |  |  |  |  |  |  |  |  |  |  | Activity (MIC) K. pneumoniae (K. pneumoniae E406-17): 8 to 16 µM; Activity (MIC) A. baumannii (A. baumannii B28-16): 8 to 16 µM; Activity (MIC) P. aeruginosa (P. aeruginosa E411-17; E411-17): 4 µM; HC50 (50% hemolysis) (human red blood cells): about 80 μM; toxicity to human HaCaT skin cells [2]: more toxic than the other peptides
VWNRLFRKWR-NH2 [RetroRIK-10++] | >32 | 16 |  |  |  |  |  |  |  |  |  |  |  | 
LWGRFFRKWK-NH2 [LL-10+] | >32 | 8 | >32 | 16 | 4 | > 32 | 32 | >32 | 8 to 16 | 16 | 8 | > 400 | > 100 | MIC S. aureus USA300 (S. aureus USA300 LAC; USA300): 16 µM; MIC (S. aureus USA300 LAC; USA300, read-out: Antimicrobial activity (MIC) S. aureus USA300): 16 µM; MIC E. coli E423-17 (E. coli E423-17 [1]): 32 µM; MIC (S. epidermidis 1457): 32 µM; MIC (P. aeruginosa E411-17; E411-17, pH 7.22): 8 µM; MIC (P. aeruginosa E411-17; E411-17): >32 µM
Gentamicin |  |  |  |  |  |  |  |  |  |  |  |  |  | Antimicrobial activity (MIC) (S. aureus USA300 LAC; MRSA in MHB, 10% serum): 0.5 to 1 µM; Antimicrobial activity (MIC) (S. aureus USA300 LAC; MRSA in MHB, 20% serum): 0.5 µM; Antimicrobial activity (MIC) (S. aureus USA300 LAC; MRSA in MHB, NaCl (150 mM)): 1 µM; Antimicrobial activity (MIC) (S. aureus USA300 LAC; MRSA in MHB, pH 6.3): 1 to 2 µM; Antimicrobial activity (MIC) (S. aureus USA300 LAC; MRSA in MHB, pH 7.2): 0.5 µM; membrane permeabilization (MRSA USA300): no fluorescence increase; membrane permeabilization (E. coli E423-17 [3]): did not permeate the E. coli membrane; change in MIC with dilution of MHB [4]: essentially no changes
